Solubility and melting point data for 33 compounds are collected here from patent publication US6969711B2, “Cyclic diamine compounds and medicine containing the same” (Kowa Company, Ltd., priority 1997, dated 2005).

A word on the solubility: it is how much of the substance goes into solution per volume. Read a low solubility as a poorly soluble substance. The melting point is the temperature of the solid-liquid transition.

Structures are written as SMILES. Values after ≈ are worked out from the molar mass of the structure shown.

The nature of one data set: Disintegration test (solubility in liquid No. 1 of the Japanese Pharmacopoeia). In kind it is physicochemical. The following applies: simulated gastric fluid, thermodynamic from solid; liquid No. 1 for disintegration test (Japanese Pharmacopoeia), pH 1.2, shaken two hours, room temperature, 0.45 μm filtrate. The source says:
Compounds of the present invention and the compounds mentioned in the previously-filed Japanese Patent Applications Hei-09/88660 (hereinafter, referred to as “A”) and Hei-09/90146 (hereinafter, referred to as “B”) as controls were suspended in a liquid No. 1 for disintegration test regulated by the Japanese Pharmacopoeia, shaken for two hours, allowed to stand at room temperature for one hour and filtered through a membrane filter of 0.45 μm. Absorbance of a mixture of this filtrate with methanol in the same amounts was measured and, from the previously-determined ε1% 1cm values, solubility was calculated.
`CC(C)c1cccc(C(C)C)c1NC(=O)CCCCCSc1nc2cc(N(C)C)ccc2o1` [Control 8, 6-[5-(N,N-Dimethylamino)-benzoxazol-2-ylthio]-N-(2,6-diisopropylphenyl)hexanamide, reference compound] registered a solubility at 2 h of 170 to 180 µg/mL (≈ 363 to 385 µM). In turn, `CC(C)c1cccc(C(C)C)c1NC(=O)CCCCCSc1nc2cc(CN(C)C)ccc2o1` [Control 7, 6-[5-(N,N-Dimethylaminomethyl)-benzoxazol-2-ylthio]-N-(2,6-diisopropylphenyl)hexanamide, reference compound] displayed a solubility at 2 h of 360 to 400 µg/mL (≈ 747 to 830 µM).

Experiment in a further data set: not given
Settings: not given
As to `COC(=O)c1cccc2oc(SCCCN3CCN(CC(=O)Nc4c(C(C)C)cccc4C(C)C)CC3)nc12` [Example 11, 2-[4-[3-(4-methoxycarbonylbenzoxazol-2-ylthio)propyl]piperazin-1-yl]-N-(2,6-diisopropylphenyl)acetamide], the melting point is 132 to 133 °C. Same read-out and setting: the result for `CC(C)c1cccc(C(C)C)c1NC(=O)NCCN1CCN(CCSc2nc3ccccc3s2)CC1` [Example 81, N-[2-[4-[2-(benzothiazole-2-ylthio)ethyl]piperazin-1-yl]ethyl]-N′-(2,6-diisopropylphenyl)urea] reads 147 to 149 °C. In the case of `CSc1ccc(C(C)C)c(NC(=O)CN2CCN(CCCSc3nc4ccccc4o3)CC2)c1C(C)C` [Example 68, 2-[4-[3-(benzoxazol-2-ylthio)propyl]piperazin-1-yl]-N-[2,6-diisopropyl-3-(methylthio)phenyl]acetamide], the melting point lay in the range of 126 to 127 °C. Still for that read-out and setting: the result for `CSc1cc(C)nc(SC)c1NC(=O)CCN1CCN(CCCSc2nc3ncccc3o2)CC1.Cl.Cl` reads 224 to 227 °C.

In turn, `CC(C)c1ccc(N(C)C)c(C(C)C)c1NC(=O)CN1CCN(CCSc2nc3ccccc3o2)CC1` [Example 59, 2-[4-[2-(benzoxazol-2-ylthio)ethyl]piperazin-1-yl]-N-(2,6-diisopropyl-3-dimethylaminophenyl)acetamide] returned a melting point of 159 to 161 °C. As to `CC(C)c1cccc(C(C)C)c1NC(=O)CN1CCN(CCSc2nc3cccc(C(C)(C)C)c3o2)CC1` [Example 95, 2-[4-[2-(7-tert-butylbenzoxazol-2-ylthio)ethyl]piperazin-1-yl]-N-(2,6-diisopropylphenyl)acetamide], the melting point lay within 138 to 140 °C. `CCCCCCCN(CCN1CCN(CCSc2nc3ccccc3s2)CC1)C(=O)Nc1c(SCC)cc(C)nc1SCC.Cl.Cl` showed a melting point of 136 to 138 °C. `CCCCCCCN(CCN1CCN(CCSc2nc3cccc(C(=O)OC)c3o2)CC1)C(=O)Nc1c(C(C)C)cccc1C(C)C` [Example 17, N′-(2,6-diisopropylphenyl)-N-heptyl-N-[2-[4-[2-(7-methoxycarbonylbenzoxazol-2-ylthio)-ethyl]piperazin-1-yl]ethyl]urea] returned a melting point of 125 to 126 °C. Still for that read-out and setting: the result for `COC(=O)c1cccc2nc(SCCN3CCN(CCNC(=O)Nc4c(C(C)C)cccc4C(C)C)CC3)oc12` [Example 82, N-[2-[4-[2-(7-methoxycarbonylbenzoxazol-2-ylthio)ethyl]piperazin-1-yl]ethyl]-N′-(2,6-diisopropylphenyl)urea] reads 186 to 188 °C; that for `CCSC1=C(NC(=O)CN2CCN(CCSc3nc4c(C)c(Cl)cc(C(C)C)c4o3)CC2)C=CC(C)(SCC)N1` (stereo not drawn) [Example 109, 2-[4-[2-(5-chloro-7-isopropyl-4-methylbenzoxazol-2-ylthio)ethyl]piperazin-1-yl]-N-[2,6-bis(ethylthio)-6-methyl-3-pyridyl]acetamide], 120 to 122 °C; that for `CSc1cc(C)nc(SC)c1NC(=O)CCN1CCN(CCSc2nc3ccccc3o2)CC1` [Example 27, 3-[4-[2-(benzoxazol-2-ylthio)ethyl]piperazin-1-yl]-N-[2,4-bis(methylthio)-6-methyl-3pyridyl]propanamide], 110 to 112 °C.

Regarding `CC(C)c1cccc(C(C)C)c1NC(=O)CN1CCN(CCSc2nc3cccc(CO)c3o2)CC1` [Example 102, 2-[4-[2-(7-hydroxymethylbenzoxazol-2-ylthio]ethyl]piperazin-1-yl]-N-(2,6-diisopropylphenyl)acetamide], the melting point was in the range of 138 to 139 °C.

The compound `COC(=O)c1ccc2nc(SCCN3CCN(CC(=O)Nc4c(C(C)C)cccc4C(C)C)CC3)oc2c1C(=O)OC` [Example 99, 2-[4-[2-(6,7-bis(methoxycarbonyl)benzoxazol-2-ylthio]ethyl]piperazin-1-yl]-N-(2,6-diisopropylphenyl)acetamide] showed a melting point of 186 to 187 °C. In turn, `Cc1cc(SC(C)C)c(NC(=O)CN2CCN(CCSc3nc4cccc([N+](=O)[O-])c4o3)CC2)c(SC(C)C)n1` [Example 107, 2-[4-[2-(7-nitrobenzoxazol-2-ylthio)ethyl]-piperazin-1-yl]-N-[2,4-bis(isopropylthio)-6-methyl-3-pyridyl]acetamide] came in with a melting point of 57 to 59 °C. In turn, `CC(C)c1ccc([N+](=O)[O-])c(C(C)C)c1NC(=O)CN1CCN(CCSc2nc3ccccc3o2)CC1` [Example 58, 2-[4-[2-(benzoxazol-2-ylthio)ethyl]piperazin-1-yl]-N-(2,6-diisopropyl-3-nitrophenyl)acetamide] yielded a melting point of 143 to 145 °C.

Regarding `COCc1ccc2nc(SCCN3CCN(CC(=O)Nc4c(C(C)C)cccc4C(C)C)CC3)oc2c1COC` [Example 100, 2-[4-[2-(6,7-bis(methoxymethyl)benzoxazol-2-ylthio]ethyl]piperazin-1-yl]-N-(2,6-diisopropylphenyl)acetamide], the melting point lay within 96 to 97 °C. Turning to `CCCCCCCN(CCN1CCN(CCSc2nc3ccccc3[nH]2)CC1)C(=O)Nc1c(SCC)cc(C)nc1SCC.Cl.Cl`, the melting point fell in the range of 134 to 137 °C.

In turn, `CC(C)c1cc(OS(C)(=O)=O)cc(C(C)C)c1NC(=O)CN1CCN(CCSc2nc3ccccc3o2)CC1` [Example 74, 2-[4-[2-(benzoxazol-2-ylthio)ethyl]piperazin-1-yl]-N-(2,6-diisopropyl-4-mesyloxyphenyl)acetamide] gave a melting point of 115 to 117 °C. `CCSc1cc(C)nc(SCC)c1NC(=O)CN1CCN(CCSc2nc3ncccc3o2)CC1.O=C(O)/C=C\C(=O)O.O=C(O)/C=C\C(=O)O` returned a melting point of 148 to 149 °C. `COc1cc(C(C)C)c(NC(=O)CN2CCN(CCCSc3nc4ccccc4o3)CC2)c(C(C)C)c1` [Example 119, 2-[4-[3-(benzoxazol-2-ylthio)propyl]piperazin-1-yl]-N-(2,6-diisopropyl-4-methoxyphenyl)acetamide] gave a melting point of 129 to 130 °C. Still for that read-out and setting: the result for `CC(C)c1ccc([N+](=O)[O-])c(C(C)C)c1NC(=O)CN1CCN(CCCSc2nc3ccccc3o2)CC1` [Example 67, 2-[4-[3-(benzoxazol-2-ylthio)propyl]piperazin-1-yl]-N-(2,6-diisopropyl-3-nitrophenyl)acetamide] reads 156 to 158 °C; that for `COC(=O)c1cccc2nc(SCCCN3CCN(CC(=O)Nc4c(SC)cc(C)nc4SC)CC3)oc12` [Example 30, N-[2,4-bis(methylthio)-6-methyl-3pyridyl)-2-[4-[3-(7-methoxycarbonylbenzoxazol-2-ylthio)propyl]piperazin-1-yl]acetamide], 76 to 79 °C. As for `COc1cc(C(C)C)c(NC(=O)CN2CCN(CCSc3nc4cccc(C(F)(F)F)c4o3)CC2)c(C(C)C)c1` [Example 86, 2-[4-[2-(7-trifluoromethylbenzoxazol-2-ylthio)ethyl]piperazin-1-yl]-N-(2,6-diisopropyl-4-methoxyphenyl)acetamide], the melting point lay within 122 to 123 °C. On the same count and under the same terms, the result for `CC(=O)Oc1ccc(C(C)C)c(NC(=O)CN2CCN(CCSc3nc4ccccc4o3)CC2)c1C(C)C` [Example 63, 2-[4-[2-(benzoxazol-2-ylthio)ethyl]piperazin-1-yl]-N-(2,6-diisopropyl-3-acetyloxyphenyl)acetamide] reads 129 to 131 °C; that for `CC(C)c1cccc(C(C)C)c1NC(=O)NCCN1CCN(CCSc2nc3ccccc3o2)CC1` [Example 79, N-[2-[4-[2-(benzoxazol-2-ylthio)-ethyl]piperazin-1-yl]ethyl]-N′-(2,6-diisopropylphenyl)urea], 152 to 153 °C; that for `COc1cc(C(C)C)c(NC(=O)CN2CCN(CCSc3nc4cccc([N+](=O)[O-])c4o3)CC2)c(C(C)C)c1` [Example 105, 2-[4-[2-(7-nitrobenzoxazol-2-ylthio)ethyl]-piperazin-1-yl]-N-(2,6-diisopropyl-4-methoxyphenyl)acetamide], 165 to 166 °C. Same read-out and setting: the result for `CC(C)c1cccc(C(C)C)c1NC(=O)CN1CCCN(CCCSc2nc3ncccc3o2)CC1` [Example 15, 2-[4-[3-(oxazolo[4,5-b]pyridin-2-ylthio)propyl]homopiperazin-1-yl]-N-(2,6-diisopropylphenyl)acetamide] reads 73 to 75 °C. Same read-out and setting: the result for `CC(C)c1ccc(NS(C)(=O)=O)c(C(C)C)c1NC(=O)CN1CCN(CCSc2nc3cccc(C(F)(F)F)c3o2)CC1.O=C(O)/C=C\C(=O)O.O=C(O)/C=C\C(=O)O` reads 172 to 174 °C. In turn, `CC(C)c1cccc(C(C)C)c1NC(=O)CN1CCN(CCSc2nc3cccc([S+](C)[O-])c3o2)CC1` (stereo not drawn) [Example 121, 2-[4-[2-(7-methanesulfinylbenzoxazol-2-ylthio)ethyl]piperazin-1-yl]-N-(2,6-diisopropylphenyl)acetamide] came in with a melting point of 119 to 120 °C. Still for that read-out and setting: the result for `CC(C)c1ccc(O)c(C(C)C)c1NC(=O)CN1CCN(CCSc2nc3ccccc3o2)CC1` [Example 61, 2-[4-[2-(benzoxazol-2-ylthio)ethyl]piperazin-1-yl]-N-(2,6-diisopropyl-3-hydroxyphenyl)acetamide] reads 96 to 98 °C; that for `Cc1cc(SC(C)C)c(NC(=O)CN2CCN(CCSc3nc4ccccc4o3)CC2)c(SC(C)C)n1.Cl.Cl`, 159 to 164 °C.
